Data as given in patent US10308636B2, “Aromatic heterocyclic compound” (MITSUBISHI TANABE PHARMA CORPORATION, priority 2012, dated 2019).

What was measured:
Male KK-Ay mice = assay: Body weight gain-suppressing, hypoglycemic and plasma insulin-decreasing action in KK-Ay mouse; assay type: in vivo; details: 30 mg/kg/day oral once a day for 2 weeks, KK-Ay mice on high fat diet; for Hypoglycemic action (30 mg/kg/day): blood sugar after overnight fast; for Hypoglycemic action (30 mg/kg/day) / Plasma insulin-decreasing action (30 mg/kg/day): relative to solvent control; for Plasma insulin-decreasing action (30 mg/kg/day): plasma insulin after overnight fast; for Body weight gain-suppressing action (30 mg/kg/day): relative to body weight gain of solvent control as 100%
Description: Male KK-Ay mice, 8 weeks old, were given high fat diet (Oriental Yeast, 60 cal % fat), the test compound was suspended in 0.2% carboxymethylcellulose solution and the suspension was orally administered once a day. After the oral administration was repeated for 2 weeks, the body weight gain-suppressing ratio of the test compound was calculated, relative to the body weight gain of the solvent control group during the test period as 100%. After the final administration, the animals were fasted overnight, and blood was sampled through the caudal vein. The blood sugar and the insulin in the plasma were determined by using Glucose C II-Test Wako (Wako Pure Chemical) and Mouse Insulin Measurement Kit (Morinaga Institute of Biological Science), respectively.

Male C57BL/6J mice = assay: Food intake-suppressing action (high fat diet); assay type: in vivo, mouse; details: 5 mg/kg oral, fasted C57BL/6J mice, food intake for 4 hours, relative to solvent control
Description: Male C57BL/6J mice, 7 to 10 weeks old, were fasted overnight, and a test compound was suspended in 0.2% carboxymethylcellulose solution and the suspension was orally administered. Immediately, the animals were given high fat diet (Oriental Yeast, 60 cal % fat) and allowed to take freely. The food intake for 4 hours was determined, and the decrease ratio of the food intake (food intake-suppressing ratio) was calculated in the test compound administrating group, relative to the food intake in the solvent control group as a control.

Male ICR mice = assay: Triglyceride (TG) elevation-suppressing action in plasma by lipid administration; assay type: in vivo, mouse; details: 5 mg/kg oral, fasted ICR mice, lipid (Intralipos 20%, 10 mL/kg) 30 minutes after compound, plasma TG 2 hours after lipid, relative to solvent control
Description: Male ICR mice, 6 to 9 weeks old, were fasted overnight, and a test compound was suspended in 0.2% carboxymethylcellulose solution and the suspension was orally administered. After 30 minutes, lipid (Intralipos, 20%, Otsuka Pharmaceutical, 10 mL/kg) was orally administered. Blood was sampled through the caudal vein immediately before and 2 hours after the administration of the lipid to obtain plasma. TG in the plasma was determined by using Triglyceride E-Test Wako (Wako Pure Chemical), and the elevation value of TG in the plasma by the lipid administration was calculated. By using the plasma TG elevation value in the solvent control group as the control, the plasma TG elevation-suppressing ratio was calculated in the test compound administrating group.

## CCOCc1nc(-c2ccc(-c3ccc(OCC(C)(C)C(=O)O)cc3)nc2)[nH]c1Cl [Example 31-2]
Male KK-Ay mice
  Hypoglycemic action (30 mg/kg/day): 55%
  Plasma insulin-decreasing action (30 mg/kg/day): 45%
  Body weight gain-suppressing action (30 mg/kg/day): 41%
Male C57BL/6J mice
  Food intake-suppressing ratio (5 mg/kg): 74%
Male ICR mice
  Plasma TG elevation suppressing ratio (5 mg/kg): 74%

## Cc1cc(OCC(C)(C)C(=O)O)ncc1-c1ccc(-c2nc(C#N)c[nH]2)cc1 [Example 32-2]
Male C57BL/6J mice
  Food intake-suppressing ratio (5 mg/kg): 65%
Male ICR mice
  Plasma TG elevation suppressing ratio (5 mg/kg): 63%

## CC(C)(COc1ccc(-c2ccc(-c3ncc(CCOc4ccccc4)[nH]3)cn2)cc1)C(=O)O [Example 1-58]
Male C57BL/6J mice
  Food intake-suppressing ratio (5 mg/kg): 68%
Male ICR mice
  Plasma TG elevation suppressing ratio (5 mg/kg): 66%

## COC(=O)C(C)(C)COc1ccc(-c2ccc(-c3nc(-c4noc(C)n4)cn3COCC[Si](C)(C)C)cn2)cc1 [Example 7]
Male KK-Ay mice
  Hypoglycemic action (30 mg/kg/day): 42%
  Plasma insulin-decreasing action (30 mg/kg/day): 34%
  Body weight gain-suppressing action (30 mg/kg/day): 34%

## COC(=O)C(C)(C)COc1ccc(-c2ccc(-c3nc(OCC(F)(F)C(F)(F)F)n(COCC[Si](C)(C)C)n3)cc2)cn1 [Example 74]
Male KK-Ay mice
  Hypoglycemic action (30 mg/kg/day): 32%
  Plasma insulin-decreasing action (30 mg/kg/day): 29%
  Body weight gain-suppressing action (30 mg/kg/day): 41%

## O=C(O)Cc1ccc(C2CCN(c3ccc(-c4nc(C(F)(F)F)c[nH]4)cn3)CC2)cc1 [Example 43-2]
Male C57BL/6J mice
  Food intake-suppressing ratio (5 mg/kg): 82%
Male ICR mice
  Plasma TG elevation suppressing ratio (5 mg/kg): 66%

## NC(=O)c1ccc(Br)cc1F [Example 78]
Male KK-Ay mice
  Hypoglycemic action (30 mg/kg/day): 57%
  Plasma insulin-decreasing action (30 mg/kg/day): 69%
  Body weight gain-suppressing action (30 mg/kg/day): 56%

## COc1ccc(-c2n[nH]c(-c3ccc(-c4ccc(OCC(C)(C)C(=O)O)nc4)cc3)n2)cc1 [Example 110]
Male C57BL/6J mice
  Food intake-suppressing ratio (5 mg/kg): 68%
Male ICR mice
  Plasma TG elevation suppressing ratio (5 mg/kg): 73.0%

## CCOc1nc(-c2ccc(-c3ccc(O[C@H]4CC[C@@H](C(=O)OCC)CC4)nc3)cc2)nn1COCC[Si](C)(C)C [Example 67]
Male KK-Ay mice
  Hypoglycemic action (30 mg/kg/day): 47%
  Plasma insulin-decreasing action (30 mg/kg/day): 14%
  Body weight gain-suppressing action (30 mg/kg/day): 43%

## Nc1nnc(-c2ccc(Br)cc2)o1 [Example 61]
Male KK-Ay mice
  Hypoglycemic action (30 mg/kg/day): 44%
  Plasma insulin-decreasing action (30 mg/kg/day): 50%
  Body weight gain-suppressing action (30 mg/kg/day): 36%

## CC(C)(COc1ccc(-c2ccc(-c3nc(COCc4ccccc4)c[nH]3)cn2)cc1)C(=O)O [Example 10]
Male KK-Ay mice
  Hypoglycemic action (30 mg/kg/day): 37%
  Plasma insulin-decreasing action (30 mg/kg/day): 40%
  Body weight gain-suppressing action (30 mg/kg/day): 32%
